The source of these data is ChEMBL document CHEMBL4145625 (J Med Chem, 2018).

SMILES strings stand for the structures.

In experiment [1] the target is Phosphatidylinositol 4,5-bisphosphate 3-kinase catalytic subunit alpha isoform (Homo sapiens, UniProt P42336). The experiment can be described thus: Inhibition of PI3Kalpha (unknown origin) using PIP2 as substrate by Kinase-Glo assay. A general note: In Kinase-Glo more light means more ATP remaining.
The subject of a further experiment is NCI-H460. The experiment can be described thus: cells. The format is functional, cell-based. Conditions: Homo sapiens, NCI-H460, 96 h.

Sequence of Phosphatidylinositol 4,5-bisphosphate 3-kinase catalytic subunit alpha isoform (P42336 whole entry, canonical isoform): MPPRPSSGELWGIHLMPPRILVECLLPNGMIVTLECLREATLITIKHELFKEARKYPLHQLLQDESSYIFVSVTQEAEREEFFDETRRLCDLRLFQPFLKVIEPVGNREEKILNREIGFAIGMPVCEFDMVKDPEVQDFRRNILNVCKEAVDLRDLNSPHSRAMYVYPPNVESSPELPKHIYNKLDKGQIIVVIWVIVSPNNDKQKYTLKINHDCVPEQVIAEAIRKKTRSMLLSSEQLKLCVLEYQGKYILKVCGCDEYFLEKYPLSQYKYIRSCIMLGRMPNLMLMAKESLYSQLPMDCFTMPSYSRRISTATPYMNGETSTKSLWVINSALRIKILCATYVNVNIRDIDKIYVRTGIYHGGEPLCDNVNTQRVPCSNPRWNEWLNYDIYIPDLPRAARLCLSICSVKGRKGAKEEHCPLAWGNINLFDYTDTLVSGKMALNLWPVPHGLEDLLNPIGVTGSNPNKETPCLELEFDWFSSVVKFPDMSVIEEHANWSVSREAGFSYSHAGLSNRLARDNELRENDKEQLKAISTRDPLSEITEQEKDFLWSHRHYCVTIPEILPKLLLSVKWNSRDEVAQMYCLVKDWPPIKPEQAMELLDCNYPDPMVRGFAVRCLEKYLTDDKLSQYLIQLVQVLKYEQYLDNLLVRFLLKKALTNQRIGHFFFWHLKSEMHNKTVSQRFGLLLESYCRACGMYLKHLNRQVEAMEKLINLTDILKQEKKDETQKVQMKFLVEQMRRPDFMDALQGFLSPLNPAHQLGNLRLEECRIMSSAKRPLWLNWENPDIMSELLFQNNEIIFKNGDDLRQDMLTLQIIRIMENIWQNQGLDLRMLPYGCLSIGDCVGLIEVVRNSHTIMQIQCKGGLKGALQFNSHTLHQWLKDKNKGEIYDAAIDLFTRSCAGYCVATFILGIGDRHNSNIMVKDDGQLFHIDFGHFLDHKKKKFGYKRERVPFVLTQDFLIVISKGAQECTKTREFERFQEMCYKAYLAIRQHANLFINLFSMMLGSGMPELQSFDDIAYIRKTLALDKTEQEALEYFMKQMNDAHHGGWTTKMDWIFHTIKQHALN
Description for NCI-H460: Cytotoxicity against human NCI-H460 cells after 96 hrs by MTT assay

As usually defined, the IC50 is the midpoint of a concentration-inhibition curve. In the case of `COc1ncc(-c2cc(OC3CCOCC3)c3nc(N)nc(C)c3c2)cc1F`, the figures for the IC50 (in experiment [1]; with NCI-H460) were 0.016 µM and 1.1 µM, respectively.

On to `CNc1nc(C)c2cc(-c3cnc(OC)c(NS(=O)(=O)c4ccc(F)cc4F)c3)cc(OC3CCCCC3)c2n1`, for which the IC50 in experiment [1] is 0.0098 µM; in the experiment on NCI-H460 it was 1.7 µM.

Regarding `COc1ncc(-c2cc(OC3CCOCC3)c3nc(N)nc(C)c3c2)cc1NS(=O)(=O)c1ccc(Cl)s1`, the IC50 in experiment [1] came out at 0.0011 µM.

In experiment [1], `CNc1nc(C)c2cc(-c3cnc(OC)c(NS(=O)(=O)c4ccc(F)cc4F)c3)cc(O[C@H]3CCOC3)c2n1` gave an IC50 of 0.0014 µM.

On to `COc1ncc(-c2cc(OC3CCCCC3)c3nc(N)nc(C)c3c2)cc1NS(=O)(=O)c1ccc(F)cc1F`, for which the IC50 was 0.00095 µM in experiment [1] and 0.096 µM in the experiment with NCI-H460.

Consider `CNc1nc(C)c2cc(-c3cnc(OC)c(NS(=O)(=O)c4ccc(F)cc4F)c3)cc(OC3CCC3)c2n1`, for which the IC50 in experiment [1] stood at 0.0041 µM.

As to `COc1ncc(-c2cc(OC3CCOCC3)c3nc(N)nc(C)c3c2)cc1NS(C)(=O)=O`, the IC50 was 0.0026 µM in experiment [1] and 0.86 µM in the experiment with NCI-H460.

For `Cc1nc(N)nc2c(OC3CCOCC3)cc(-c3cnc(Cl)c(NS(=O)(=O)c4ccc(F)cc4)c3)cc12`, the IC50 in experiment [1] is 0.0017 µM; in the experiment on NCI-H460 it was 1.2 µM.

For `COc1ncc(-c2cc(OC3CCOCC3)c3nc(NC(C)=O)nc(C)c3c2)cc1NS(=O)(=O)c1ccc(F)cc1F`, the values for the IC50 (in experiment [1]; with NCI-H460) were 0.0014 µM and 0.053 µM, respectively.

In the case of `COc1ncc(-c2cc(OC3CCN(C)CC3)c3nc(N)nc(C)c3c2)cc1NS(=O)(=O)c1ccc(F)cc1F`, the IC50 in experiment [1] came to 0.0048 µM; with NCI-H460 it was 0.66 µM.

`COc1ncc(-c2cc(OC3CCOCC3)c3nc(N(C)C)nc(C)c3c2)cc1NS(=O)(=O)c1ccc(F)cc1F`: the IC50 stood at 0.125 µM in experiment [1] and 4.3 µM with NCI-H460.

Regarding `COc1ncc(-c2cc(OCC3CCOC3)c3nc(N)nc(C)c3c2)cc1NS(=O)(=O)c1ccc(F)cc1F` (stereo unspecified), in experiment [1], inhibition was half-maximal at 0.0012 µM (IC50).

In the experiment with NCI-H460, `COCCOc1cc(-c2cnc(OC)c(NS(=O)(=O)c3ccc(F)cc3F)c2)cc2c(C)nc(N)nc12` came in with an IC50 of 0.2 µM.

Regarding `COc1ncc(-c2cc3c(C)nc(N)nc3n([C@H]3CC[C@H](OCCO)CC3)c2=O)cc1NS(=O)(=O)c1ccc(F)cc1F`, the figures for the IC50 (in experiment [1]; in the experiment with NCI-H460) were 0.00087 µM and 0.36 µM, respectively.

For `COc1ncc(-c2cc(OCC3CC3)c3nc(N)nc(C)c3c2)cc1NS(=O)(=O)c1ccc(F)cc1F`, the 50% inhibitory concentration (IC50) came out at 0.0014 µM in experiment [1] and 0.2 µM in the experiment on NCI-H460.

With `COc1ncc(-c2cc(O[C@H]3CCOC3)c3nc(N)nc(C)c3c2)cc1NS(=O)(=O)c1ccc(F)cc1F`, the IC50 in experiment [1] stood at 0.00083 µM; with NCI-H460 it was 0.094 µM.

`COc1ncc(-c2cc(OCC3CCOCC3)c3nc(N)nc(C)c3c2)cc1NS(=O)(=O)c1ccc(F)cc1F`: the results for the IC50 (in experiment [1]; in the experiment on NCI-H460) were 0.00073 µM and 0.021 µM, respectively.

In experiment [1], `CNc1nc(C)c2cc(-c3cnc(OC)c(NS(=O)(=O)c4ccc(F)cc4F)c3)cc(OC3CCCC3)c2n1` registered an IC50 of 0.0066 µM.

`CNc1nc(C)c2cc(-c3cnc(OC)c(NS(=O)(=O)c4ccc(F)cc4F)c3)cc(OCC3CCOC3)c2n1` (stereo unspecified): the results for the IC50 (in experiment [1]; in the experiment with NCI-H460) were 0.002 µM and 0.31 µM, respectively.

On to `COc1ncc(-c2cc(OC3CCOCC3)c3nc(N)nc(C)c3c2)cc1NS(=O)(=O)c1ccc(F)cc1Cl`, for which the IC50 in experiment [1] turned out to be 0.0011 µM; in the experiment on NCI-H460, 0.017 µM.

Take `COc1ncc(-c2cc(OC3CCOCC3)c3nc(N)nc(C)c3c2)cc1NS(=O)(=O)c1ccc(F)cc1`: the IC50 in experiment [1] amounted to 0.0012 µM; in the experiment on NCI-H460, 0.096 µM.

Turning to `COc1ncc(-c2cc(OCC3CCCO3)c3nc(N)nc(C)c3c2)cc1NS(=O)(=O)c1ccc(F)cc1F` (stereo unspecified), the IC50 in experiment [1] turned out to be 0.0011 µM.

With `COc1ncc(-c2cc(OC3CCOCC3)c3nc(NCC4CC4)nc(C)c3c2)cc1NS(=O)(=O)c1ccc(F)cc1F`, the IC50 came out at 0.0054 µM in experiment [1] and 0.41 µM in the experiment with NCI-H460.

In the experiment on NCI-H460, `COc1ncc(-c2cc(OC)c3nc(N)nc(C)c3c2)cc1NS(=O)(=O)c1ccc(F)cc1F` returned an IC50 of 0.28 µM.

With `CCNc1nc(C)c2cc(-c3cnc(OC)c(NS(=O)(=O)c4ccc(F)cc4F)c3)cc(OC3CCOCC3)c2n1`, the IC50 in experiment [1] stood at 0.0015 µM; with NCI-H460, 0.24 µM.

On to `COc1ncc(-c2cc(OC3CCOCC3)c3nc(NC(C)=O)nc(C)c3c2)cc1NS(C)(=O)=O`, for which the IC50 in experiment [1] worked out at 0.011 µM; in the experiment with NCI-H460, 3.2 µM.

In turn, `COc1ncc(-c2cc(OC3CCC3)c3nc(N)nc(C)c3c2)cc1NS(=O)(=O)c1ccc(F)cc1F` gave an IC50 in experiment [1] of 0.00095 µM.

On to `COc1ncc(-c2cc(OC3CCOCC3)c3nc(N)nc(C)c3c2)cc1NS(=O)(=O)C1CC1`, for which the results for the IC50 (in experiment [1]; in the experiment with NCI-H460) were 0.0025 µM and 0.93 µM, respectively.

With `CNc1nc(C)c2cc(-c3cnc(OC)c(NS(=O)(=O)c4ccc(F)cc4F)c3)cc(OCC3CCOCC3)c2n1`, the IC50 in experiment [1] worked out at 0.0018 µM; in the experiment on NCI-H460 it was 0.4 µM.

For the compound `COc1ccc(-c2cc(OC3CCOCC3)c3nc(N)nc(C)c3c2)cn1`, the 50% inhibitory concentration (IC50) in experiment [1] is 0.031 µM; with NCI-H460, 0.98 µM.

For the compound `Cc1ncc(-c2cc(OC3CCOCC3)c3nc(N)nc(C)c3c2)cc1NS(=O)(=O)c1ccc(F)cc1F`, the IC50 was found to be 0.0014 µM in experiment [1] and 2.1 µM in the experiment on NCI-H460.

With `CNc1nc(C)c2cc(-c3cnc(OC)c(NS(=O)(=O)c4ccc(F)cc4F)c3)cc(OC3CCOC(C)(C)C3)c2n1` (stereo unspecified), the figures for the IC50 (in experiment [1]; in the experiment with NCI-H460) were 0.0018 µM and 0.25 µM, respectively.

Regarding `COc1ncc(-c2cc(OCCN3CCOCC3)c3nc(N)nc(C)c3c2)cc1NS(=O)(=O)c1ccc(F)cc1F`, the IC50 stood at 0.0033 µM in experiment [1] and 1.1 µM in the experiment with NCI-H460.

Regarding `COc1ncc(-c2cc(OC3CCC(F)(F)CC3)c3nc(N)nc(C)c3c2)cc1NS(=O)(=O)c1ccc(F)cc1F`, the concentration for half-maximal inhibition (IC50) in experiment [1] was determined as 0.0016 µM; with NCI-H460 it was 0.083 µM.

Take `COc1ncc(-c2cc(OC(C)C)c3nc(N)nc(C)c3c2)cc1NS(=O)(=O)c1ccc(F)cc1F`: the half-inhibitory concentration (IC50) is 0.0007 µM in experiment [1] and 0.14 µM in the experiment on NCI-H460.
